From ChEMBL document CHEMBL1201862, “PubChem BioAssay data set” (2004)
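In this assay, cells in 96-well plates receive the compound at five concentrations for 48 hours. Endpoints are linearly interpolated between the surrounding concentrations. GI50: concentration for 50% inhibition of growth.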 The source made the active and inactive calls. Cut-off read from the data, not from the text of the source: active = GI50 up to about 1.1 µM and inactive = higher.

Columns and labels:
Assay in all cases: growth of human tumour cells (NCI), 48 h
MDA-MB-231 = test system: MDA-MB-231
UO-31 = test system: UO-31
KM12 = test system: KM12
786-0 = test system: 786-0
CAKI-1 = test system: CAKI-1
OVCAR-3 = test system: OVCAR-3
OVCAR-5 = test system: OVCAR-5
NCI-H522 = test system: NCI-H522
A549 = test system: A549
T47D = test system: T47D
LOX IMVI = test system: LOX IMVI
EKVX = test system: EKVX
A498 = test system: A498
HOP-92 = test system: HOP-92
SF-295 = test system: SF-295
U-251 = test system: U-251
UACC-257 = test system: UACC-257
K562 = test system: K562
NCI/ADR-RES = test system: NCI/ADR-RES
OVCAR-8 = test system: OVCAR-8

Structure (SMILES)	GI50 (MDA-MB-231)	GI50 (UO-31)	GI50 (KM12)	GI50 (786-0)	GI50 (CAKI-1)	GI50 (OVCAR-3)	GI50 (OVCAR-5)	GI50 (NCI-H522)	GI50 (A549)	GI50 (T47D)	GI50 (LOX IMVI)	GI50 (EKVX)	GI50 (A498)	GI50 (HOP-92)	GI50 (SF-295)	GI50 (U-251)	GI50 (UACC-257)	GI50 (K562)	GI50 (NCI/ADR-RES)	GI50 (OVCAR-8)
CCc1cccc(CC)c1Nc1nc2c(s1)C(=O)c1ccccc1C2=O	16.5 µM (inactive)	15.4 µM (inactive)	18.1 µM (inactive)	20.9 µM (inactive)	16.4 µM (inactive)	13.7 µM (inactive)	20.3 µM (inactive)	23.4 µM (inactive)	31.4 µM (inactive)	33.6 µM (inactive)	18 µM (inactive)	16.3 µM (inactive)	> 10 µM (inactive)	19.5 µM (inactive)	13.7 µM (inactive)	15.8 µM (inactive)	19.5 µM (inactive)	28 µM (inactive)	–	–
O=C1NC(=S)N/C1=C\c1ccc(Cl)cc1	> 100 µM (inactive)	53.7 µM (inactive)	89.7 µM (inactive)	> 100 µM (inactive)	> 100 µM (inactive)	> 100 µM (inactive)	> 100 µM (inactive)	> 100 µM (inactive)	93.1 µM (inactive)	42.5 µM (inactive)	> 100 µM (inactive)	33.6 µM (inactive)	–	–	> 100 µM (inactive)	> 100 µM (inactive)	–	–	> 100 µM (inactive)	> 100 µM (inactive)
O=C(O)c1ccc(P(=O)(O)c2ccc(C(=O)O)cc2Br)c(Br)c1	> 100 µM (inactive)	> 100 µM (inactive)	> 100 µM (inactive)	> 100 µM (inactive)	> 100 µM (inactive)	> 100 µM (inactive)	–	> 100 µM (inactive)	> 100 µM (inactive)	–	> 100 µM (inactive)	> 100 µM (inactive)	–	> 100 µM (inactive)	> 100 µM (inactive)	–	> 100 µM (inactive)	> 100 µM (inactive)	–	> 100 µM (inactive)
Cc1ccc(C)c(NC(=O)CCc2nnc(S)[nH]2)c1	–	> 100 µM (inactive)	> 100 µM (inactive)	> 100 µM (inactive)	> 100 µM (inactive)	> 100 µM (inactive)	> 100 µM (inactive)	> 100 µM (inactive)	> 100 µM (inactive)	–	> 100 µM (inactive)	> 100 µM (inactive)	> 100 µM (inactive)	> 100 µM (inactive)	> 100 µM (inactive)	> 100 µM (inactive)	> 100 µM (inactive)	> 100 µM (inactive)	–	> 100 µM (inactive)
C=C(C(=O)OCC)C(=O)OCC	> 100 µM (inactive)	> 100 µM (inactive)	> 100 µM (inactive)	> 100 µM (inactive)	> 100 µM (inactive)	> 100 µM (inactive)	> 100 µM (inactive)	> 100 µM (inactive)	> 100 µM (inactive)	> 100 µM (inactive)	> 100 µM (inactive)	> 100 µM (inactive)	–	> 100 µM (inactive)	> 100 µM (inactive)	> 100 µM (inactive)	> 100 µM (inactive)	> 100 µM (inactive)	–	> 100 µM (inactive)
COc1ccc(/C=C/C(=O)CC(=O)/C=C/c2ccc(OC)cc2)cc1	51.4 µM (inactive)	34.8 µM (inactive)	> 100 µM (inactive)	30.8 µM (inactive)	62.4 µM (inactive)	23.1 µM (inactive)	46.2 µM (inactive)	7.94 µM (inactive)	80.4 µM (inactive)	> 100 µM (inactive)	1.4 µM (inactive)	54.7 µM (inactive)	–	–	27.9 µM (inactive)	41.3 µM (inactive)	> 100 µM (inactive)	32.7 µM (inactive)	36.1 µM (inactive)	21.4 µM (inactive)
C=C1C(=O)[C@]23[C@H](O)[C@H]1CC[C@H]2[C@@]12CO[C@@]3(O)C[C@@H]1C(C)(C)CC[C@@H]2O [MEGATHYRIN A]	5.66 µM (inactive)	13.8 µM (inactive)	6.22 µM (inactive)	9.57 µM (inactive)	8.47 µM (inactive)	11.5 µM (inactive)	> 25 µM (inactive)	3.63 µM (inactive)	16.2 µM (inactive)	–	4.25 µM (inactive)	9.79 µM (inactive)	7.45 µM (inactive)	> 25 µM (inactive)	12.3 µM (inactive)	–	6.01 µM (inactive)	7.41 µM (inactive)	9.66 µM (inactive)	8.57 µM (inactive)
OC(c1ccccc1)c1c(-c2ccccc2)[nH]c(-c2ccccc2)c1C(O)c1ccccc1 (stereo unspecified)	–	1.45 µM (inactive)	3.25 µM (inactive)	4.38 µM (inactive)	2.55 µM (inactive)	2.5 µM (inactive)	2.77 µM (inactive)	3.27 µM (inactive)	3.73 µM (inactive)	4.86 µM (inactive)	2.19 µM (inactive)	3.21 µM (inactive)	3.79 µM (inactive)	2.19 µM (inactive)	3.75 µM (inactive)	3.78 µM (inactive)	3.04 µM (inactive)	2.03 µM (inactive)	2.69 µM (inactive)	–
COc1ccc(OC)c(N2C(=O)CSC2c2cc(OC)c(OC)c(OC)c2)c1 (stereo unspecified)	> 100 µM (inactive)	> 100 µM (inactive)	81.7 µM (inactive)	> 100 µM (inactive)	> 100 µM (inactive)	> 100 µM (inactive)	> 100 µM (inactive)	40.6 µM (inactive)	> 100 µM (inactive)	–	> 100 µM (inactive)	> 100 µM (inactive)	> 100 µM (inactive)	> 100 µM (inactive)	> 100 µM (inactive)	> 100 µM (inactive)	89.5 µM (inactive)	83.8 µM (inactive)	> 100 µM (inactive)	> 100 µM (inactive)
S=c1oc(CCCCCCCCc2nn(CNc3ccc(Cl)cc3)c(=S)o2)nn1CNc1ccc(Cl)cc1	> 100 µM (inactive)	97.3 µM (inactive)	35.8 µM (inactive)	> 100 µM (inactive)	33.8 µM (inactive)	–	60.5 µM (inactive)	> 100 µM (inactive)	> 100 µM (inactive)	–	–	> 100 µM (inactive)	> 100 µM (inactive)	> 100 µM (inactive)	4.92 µM (inactive)	> 100 µM (inactive)	40 µM (inactive)	6.89 µM (inactive)	> 100 µM (inactive)	–
Cn1ncc2c(c1=O)Nc1ccccc1S2(=O)=O	–	> 100 µM (inactive)	> 100 µM (inactive)	28.4 µM (inactive)	> 100 µM (inactive)	> 100 µM (inactive)	> 100 µM (inactive)	> 100 µM (inactive)	> 100 µM (inactive)	–	> 100 µM (inactive)	> 100 µM (inactive)	> 100 µM (inactive)	> 100 µM (inactive)	> 100 µM (inactive)	34.6 µM (inactive)	> 100 µM (inactive)	> 100 µM (inactive)	–	> 100 µM (inactive)
CC(=O)C1=C(C)Cn2c(=O)c3ccccc3c(=O)n2C1	–	> 100 µM (inactive)	> 100 µM (inactive)	> 100 µM (inactive)	> 100 µM (inactive)	> 100 µM (inactive)	> 100 µM (inactive)	> 100 µM (inactive)	> 100 µM (inactive)	–	> 100 µM (inactive)	> 100 µM (inactive)	82 µM (inactive)	> 100 µM (inactive)	> 100 µM (inactive)	> 100 µM (inactive)	> 100 µM (inactive)	> 100 µM (inactive)	–	> 100 µM (inactive)
Cc1ccc(C)c(N2C(=O)C(=O)C(c3nc4ccccc4s3)C(=O)C2=O)c1	–	> 100 µM (inactive)	> 100 µM (inactive)	> 100 µM (inactive)	> 100 µM (inactive)	> 100 µM (inactive)	71.8 µM (inactive)	> 100 µM (inactive)	> 100 µM (inactive)	–	> 100 µM (inactive)	> 100 µM (inactive)	> 100 µM (inactive)	> 100 µM (inactive)	> 100 µM (inactive)	83.8 µM (inactive)	> 100 µM (inactive)	> 100 µM (inactive)	–	> 100 µM (inactive)
COc1cc(OC)c2c(c1-c1ccc(C)cc1)CC(C)N(Cc1ccccc1)[C@H]2C (stereo partly specified)	51.3 µM (inactive)	47.9 µM (inactive)	28.2 µM (inactive)	33.7 µM (inactive)	63.8 µM (inactive)	–	–	33.5 µM (inactive)	44.2 µM (inactive)	23.8 µM (inactive)	36.2 µM (inactive)	43.9 µM (inactive)	87.7 µM (inactive)	–	70.3 µM (inactive)	–	25.2 µM (inactive)	22.1 µM (inactive)	–	39.4 µM (inactive)
COc1ccccc1NC(=S)N/N=C/c1cccc(C)n1	3.52 µM (inactive)	3.57 µM (inactive)	6.25 µM (inactive)	2.9 µM (inactive)	4.75 µM (inactive)	1.26 µM (inactive)	> 27.4 µM (inactive)	0.279 µM (active)	4.16 µM (inactive)	–	2.3 µM (inactive)	4.67 µM (inactive)	23.6 µM (inactive)	8.09 µM (inactive)	4.32 µM (inactive)	4.26 µM (inactive)	3.33 µM (inactive)	1.27 µM (inactive)	3.31 µM (inactive)	4.07 µM (inactive)
CC(C)c1ccc(/C=C2\N=C(c3ccc([N+](=O)[O-])cc3)OC2=O)cc1	> 100 µM (inactive)	–	> 100 µM (inactive)	> 100 µM (inactive)	> 100 µM (inactive)	> 100 µM (inactive)	> 100 µM (inactive)	> 100 µM (inactive)	> 100 µM (inactive)	> 100 µM (inactive)	> 100 µM (inactive)	> 100 µM (inactive)	> 100 µM (inactive)	> 100 µM (inactive)	> 100 µM (inactive)	54.2 µM (inactive)	> 100 µM (inactive)	> 100 µM (inactive)	–	> 100 µM (inactive)
